From patent US20220411414A1, “INHIBITORS FOR THE B-CATENIN/B-CELL LYMPHOMA 9 (BCL9) PROTEIN-PROTEIN INTERACTION” (H. LEE MOFFITT CANCER CENTER AND RESEARCH INSTITUTE, INC., priority 2018, published 2022)

Assays:
β-catenin/BCL9 = target: T1, β-catenin/BCL9 (Homo sapiens, UniProt P35222); assay: AlphaScreen competitive inhibition assay, β-catenin/BCL9 PPI; type: binding; conditions: for Ki: AlphaScreen
T1 construct: Full-length β-catenin and (residues 1-781) were cloned into a pET-28b vector carrying a C-terminal 6× histidine; made in house; host or cells: E. coli BL21 DE3
T1 sequence (P35222 1-781): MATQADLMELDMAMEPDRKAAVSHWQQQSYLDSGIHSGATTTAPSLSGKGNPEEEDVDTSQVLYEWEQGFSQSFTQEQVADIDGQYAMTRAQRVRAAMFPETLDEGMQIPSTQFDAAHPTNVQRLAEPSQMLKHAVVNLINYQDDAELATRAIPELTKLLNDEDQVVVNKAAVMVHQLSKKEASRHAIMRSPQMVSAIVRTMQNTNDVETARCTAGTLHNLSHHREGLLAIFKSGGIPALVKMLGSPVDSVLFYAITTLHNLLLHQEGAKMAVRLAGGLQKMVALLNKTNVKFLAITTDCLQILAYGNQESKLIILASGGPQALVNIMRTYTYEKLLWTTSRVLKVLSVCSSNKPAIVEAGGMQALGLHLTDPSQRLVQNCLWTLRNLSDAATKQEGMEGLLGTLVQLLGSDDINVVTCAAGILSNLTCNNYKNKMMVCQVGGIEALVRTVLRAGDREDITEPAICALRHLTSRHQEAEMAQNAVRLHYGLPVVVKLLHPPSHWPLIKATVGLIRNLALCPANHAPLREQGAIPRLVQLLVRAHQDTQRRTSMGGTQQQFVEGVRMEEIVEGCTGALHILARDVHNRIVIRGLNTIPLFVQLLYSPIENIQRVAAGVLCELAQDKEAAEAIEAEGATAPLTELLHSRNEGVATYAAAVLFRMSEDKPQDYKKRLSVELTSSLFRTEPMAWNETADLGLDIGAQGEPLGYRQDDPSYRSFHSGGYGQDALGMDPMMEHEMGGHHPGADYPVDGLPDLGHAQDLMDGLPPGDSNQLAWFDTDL
Excerpt: The biochemical AlphaScreen assay was employed to evaluate the inhibitory potency of these two final products for disruption of the β-catenin/BCL9 PPI.
(§1) BCL9 peptide synthesis and purification. Human BCL9 (residues 350-375), N-terminally biotinylated human BCL9 (residues 350-375), human E-cadherin (residues 824-877), and N-terminally biotinylated human E-cadherin (residues 824-877) were synthesized by InnoPep Inc. (San Diego, Calif., www.innopep.com). All synthesized peptides were purified by HPLC with purity >95%. The structures were validated by LC/MS. The sequences are as follows (Ahx, 6-aminohexanoic acid).
For the β-catenin/BCL9 assay, 5 nM of biotinylated BCL9 and 40 nM of His6-tagged β-catenin were incubated in assay buffer at 4° C. for 30 min. For the β-catenin/E-cadherin assay, 10 nM of biotinylated human E-cadherin, and 40 nM of His6-tagged human β-catenin were added and incubated in assay buffer at 4° C. for 30 min. Different concentrations of the tested peptide or inhibitor were added and incubated in 20 μL assay buffer at 4° C. for another 1.5 h. All of the above assay plates were covered and gently mixed on an orbital shaker. The donor and acceptor beads were then added to the plates to a final concentration of 10 μg/mL in 25 μL assay buffer. The mixture was incubated for 1 h at 4° C. before detection. The IC50 value was determined by nonlinear least-square analysis of GraphPad Prism 5.0. The inhibition constant (Ki) values were derived from the IC50 values using a method reported by Nikolovska-Coleska et al (Nikolovska-Coleska, Z.; Wang, R.; Fang, X.; Pan, H.; Tomita, Y.; Li, P.; Roller, P. P.; Krajewski, K.; Saito, N. G.; Stuckey, J. A.; Wang, S. Development and optimization of a binding assay for the XIAP BIR3 domain using fluorescence polarization, Anal. Biochem. 2004, 332, 261-273.). The assays were conducted under the conditions required by Nikolovska-Coleska et al.'s equation for determining the Ki values. All of the experiments were performed in triplicate. The results were expressed as mean±standard deviation. The inhibitor selectivity for, β-catenin/BCL9 over, β-catenin/E-cahderin interactions was defined as the ratio of the respective Ki value of β-catenin/E-cadherin interactions over that of β-catenin/BCL9 interactions.

[1] = system: TOPFlash (three wild-type Tcf binding sites) luciferase reporter; assay: Wnt-responsive TOPFlash luciferase reporter assay, SW480; type: cell-based; conditions: Homo sapiens, 24 h treatment, read-out: TOPFlash IC50 ± SD SW480
Experimental: The TOPFlash luciferase reporter assay (in which the luciferase reporter has three wild-type Tcf4 binding sites) was performed with 4 and 5. Cell transfection and luciferase assay. FuGENE6 (E269A, Promega) 96 well plate format was used for the transfection of HEK293 and SW480 cells according to the manufacturer's instruction. HEK293 cells were co-transfected with 45 ng of TOPFlash or FOPFlash reporter gene, 135 ng pcDNA3.1-β-catenin, and 20 ng of pCMV-RL normalization reporter gene. SW480 cells were co-transfected with 60 ng of the TOPFlash or FOPFlash reporter gene and 40 ng of pCMV-RL normalization reporter. Cells were cultured in DMEM and 10% FBS at 37° C. for 24 h, and different concentrations of inhibitors or DMSO was added. After 24 h, the luciferase reporter activity was measured using the Dual-Glo system (E2940, Promega). Normalized luciferase activity in response to the treatment with 4 and 5 was compared with that obtained from the cells treated with DMSO. Experiments were performed in triplicate.

β-catenin/E-cadherin = target: T2, β-catenin/E-cadherin (Homo sapiens, UniProt P35222); assay: AlphaScreen selectivity assay, β-catenin/E-cadherin PPI; type: binding; conditions: Table 2, read-out: Ki ± SD β-catenin/E-cadherin
T2 construct: Full-length β-catenin and (residues 1-781) were cloned into a pET-28b vector carrying a C-terminal 6× histidine; made in house; host or cells: E. coli BL21 DE3
T2 sequence (P35222 1-781): T1 sequence (P35222 1-781)
Excerpt: Compounds 4 and 5 were further evaluated with their selectivities for the disruption of β-catenin/BCL9 over β-catenin/E-cadherin interactions using the AlphaScreen selectivity assay (Zhang, M.; Wisniewski, J. A.; Ji, H AlphaScreen selectivity assay for, β-catenin/B-cell lymphoma 9 inhibitors. Anal. Biochen. 2015, 469, 43-53.).
as §1, with “The structures were validated by LC/MS. The sequences are as follows (Ahx, 6-aminohexanoic acid).” left out
For the β-catenin/BCL9 assay, 5 nM of biotinylated BCL9 and 40 nM of His6-tagged β-catenin were incubated in assay buffer at 4° C. for 30 min. […] The IC50 value was determined by nonlinear least-square analysis of GraphPad Prism 5.0. The inhibition constant (Ki) values were derived from the IC50 values using a method reported by Nikolovska-Coleska et al (Nikolovska-Coleska, Z.; Wang, R.; Fang, X.; Pan, H.; Tomita, Y.; Li, P.; Roller, P. P.; Krajewski, K.; Saito, N. G.; Stuckey, J. A.; Wang, S. Development and optimization of a binding assay for the XIAP BIR3 domain using fluorescence polarization, Anal. Biochem. 2004, 332, 261-273.). […] The results were expressed as mean±standard deviation. […]

**Q.** What does the source list for Cl.Cl.O=C(Nc1ccc(O[C@@H]2CCNC2)c(-c2cccc(-c3nn[nH]n3)c2)c1)c1ccc(O[C@H]2CCNC2)c(-c2ccc(F)c(F)c2)c1 [Compound 4, 3′,4′-difluoro-6-(((S)-pyrrolidin-3-yl)oxy)-N-(6-(((R)-pyrrolidin-3-yl)oxy)-3′-(2H-tetrazol-5-yl)-[1,1′-biphenyl]-3-yl)-[1,1′-biphenyl]-3-carboxamide dihydrochloride]?
**A.** selectivity for β-catenin/BCL9 over β-catenin/E-cadherin PPIs (in words) (β-catenin/BCL9; AlphaScreen biochemical assay): exceptionally high selectivity; Ki (β-catenin/BCL9; Table 1, mean ± SD (n = 3)): 470 ± 140 nM; Ki (β-catenin/BCL9; Table 2, mean ± SD (n = 3)): 470 ± 140 nM; Selectivity BCL9/cadherin (β-catenin/BCL9; ratio of Ki β-catenin/E-cadherin over Ki β-catenin/BCL9): >1900; IC50 [1]: 25000 ± 2700 nM; Ki (β-catenin/E-cadherin): > 915000 nM
